Laboratory results: US20250250230A1, “HETEROCYCLIC COMPOUND” (TAKEDA PHARMACEUTICAL COMPANY LIMITED, priority 2022, published 2025)

biological target: T1, human orexin type 2 receptor (Homo sapiens, UniProt O43614); assay: Measurement of orexin type 2 receptor agonist activity (calcium fluorescence, Fluo-4 AM, FDSS); type: cell-based; conditions: test compound 3 μM; CHO cells expressing human OX2 receptor; DMSO = 0%, orexin A (human) = 100%
T1 construct: expressed in transfected cells
T1 sequence (O43614 1-444): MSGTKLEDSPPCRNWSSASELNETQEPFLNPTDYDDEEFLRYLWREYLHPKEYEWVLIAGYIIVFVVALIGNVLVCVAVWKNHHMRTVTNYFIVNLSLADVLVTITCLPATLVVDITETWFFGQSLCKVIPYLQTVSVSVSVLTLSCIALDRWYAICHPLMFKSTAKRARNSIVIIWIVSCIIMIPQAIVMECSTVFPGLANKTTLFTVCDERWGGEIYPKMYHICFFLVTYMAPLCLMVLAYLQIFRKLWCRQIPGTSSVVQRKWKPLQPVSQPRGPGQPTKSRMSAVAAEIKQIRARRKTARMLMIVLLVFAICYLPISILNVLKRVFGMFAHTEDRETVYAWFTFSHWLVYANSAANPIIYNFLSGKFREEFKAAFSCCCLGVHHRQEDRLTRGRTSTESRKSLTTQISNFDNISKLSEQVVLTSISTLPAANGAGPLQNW
Summary of the method: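 Agonist response scaled between vehicle (0%) and human orexin A at 10 nM final (100%), from 2-min kinetic Fluo-4 fluorescence reads. Stable hOX2R CHO-K1 clone, dye-loaded in HBSS/20 mM HEPES/0.1% BSA with 1.25 mM probenecid before compound addition.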

| SMILES | OX2R agonist activity (3 μM, %) |
| --- | --- |
| O=C(C1CC1c1ccccc1-c1c(F)cccc1F)N1CCC1CNS(=O)(=O)C1CC1 (racemic) [Example 205, a mixture of rac-N-({(2R)-1-[(1R,2R)-2-(2′,6′-difluoro[1,1′-biphenyl]-2-yl)cyclopropane-1-carbonyl]azetidin-2-yl}methyl)cyclopropanesulfonamide and rac-N-({(2S)-1-[(1R,2R)-2-(2′,6′-difluoro[1,1′-biphenyl]-2-yl)cyclopropane-1-carbonyl]azetidin-2-yl}methyl)cyclopropanesulfonamide] | 78% |
| C[C@@H]1CN(C(=O)[C@@H]2C[C@H]2c2ccccc2-c2c(F)cccc2F)C[C@H]1NS(C)(=O)=O [Example 264, N-{(3S,4R)-1-[(1R,2R)-2-(2′,6′-difluoro[1,1′-biphenyl]-2-yl)cyclopropane-1-carbonyl]-4-methylpyrrolidin-3-yl}methanesulfonamide] | 97% |
| CN(C)S(=O)(=O)NC[C@@H]1CN(C(=O)[C@@H]2C[C@H]2c2ccccc2-c2c(F)cccc2F)CCO1 [Example 299, N′-({(2S)-4-[(1R,2R)-2-(2′,6′-difluoro[1,1′-biphenyl]-2-yl)cyclopropane-1-carbonyl]morpholin-2-yl}methyl)-N,N-dimethylsulfuric diamide] | 90% |
| CC1(NS(C)(=O)=O)CCCN(C(=O)[C@@H]2C[C@H]2c2ccccc2-c2c(F)cccc2F)C1 (mixture of isomers) [Example 310, a mixture of N-{(3R)-1-[(1R,2R)-2-(2′,6′-difluoro[1,1′-biphenyl]-2-yl)cyclopropane-1-carbonyl]-3-methylpiperidin-3-yl}methanesulfonamide and N-{(3S)-1-[(1R,2R)-2-(2′,6′-difluoro[1,1′-biphenyl]-2-yl)cyclopropane-1-carbonyl]-3-methylpiperidin-3-yl}methanesulfonamide] | 100% |
| CS(=O)(=O)NC1CN(C(=O)C2CC2c2ccccc2-c2c(F)cccc2F)CC1(F)F (stereo not drawn) [Example 180, N-{1-[2-(2′,6′-difluoro[1,1′-biphenyl]-2-yl)cyclopropane-1-carbonyl]-4,4-difluoropyrrolidin-3-yl}methanesulfonamide optical isomer] | 95% |
| CS(=O)(=O)N[C@H]1C[C@@H](F)CN(C(=O)[C@@H]2C[C@H]2c2ccccc2-c2c(F)cccc2F)C1 [Example 232, N-{(3S,5R)-1-[(1R,2R)-2-(2′,6′-difluoro[1,1′-biphenyl]-2-yl)cyclopropane-1-carbonyl]-5-fluoropiperidin-3-yl}methanesulfonamide] | 103% |
| CS(=O)(=O)NC1CCCN(C(=O)C2CC2c2cccc(F)c2-c2ccccc2F)C1 (racemic) [Example 105, a mixture of rac-N-{(3R)-1-[(1R,2R)-2-(2′,6-difluoro[1,1′-biphenyl]-2-yl)cyclopropane-1-carbonyl]piperidin-3-yl}methanesulfonamide and rac-N-{(3S)-1-[(1R,2R)-2-(2′,6-difluoro[1,1′-biphenyl]-2-yl)cyclopropane-1-carbonyl]piperidin-3-yl}methanesulfonamide] | 60% |
| CS(=O)(=O)NC1CCN(C(=O)C2CC2c2ccccc2-c2c(F)cccc2Cl)C1 (racemic) [Example 15, a mixture of rac-N-{(3R)-1-[(1R,2R)-2-(2′-chloro-6′-fluoro[1,1′-biphenyl]-2-yl)cyclopropane-1-carbonyl]pyrrolidin-3-yl}methanesulfonamide and rac-N-{(3S)-1-[(1R,2R)-2-(2′-chloro-6′-fluoro[1,1′-biphenyl]-2-yl)cyclopropane-1-carbonyl]pyrrolidin-3-yl}methanesulfonamide] | 92% |
| Cc1ccc(C2CC2C(=O)N2CCCC(NS(C)(=O)=O)C2)c(-c2c(F)cccc2F)c1 (racemic) [Example 166, a mixture of rac-N-{(3R)-1-[(1R,2R)-2-(2′,6′-difluoro-5-methyl[1,1′-biphenyl]-2-yl)cyclopropane-1-carbonyl]piperidin-3-yl}methanesulfonamide and rac-N-{(3S)-1-[(1R,2R)-2-(2′,6′-difluoro-5-methyl[1,1′-biphenyl]-2-yl)cyclopropane-1-carbonyl]piperidin-3-yl}methanesulfonamide] | 110% |
| CC1(C(=O)N2CCC2CNS(C)(=O)=O)CC1c1ccccc1-c1c(F)cccc1F (stereo not drawn) [Example 327, N-({1-[2-(2′,6′-difluoro[1,1′-biphenyl]-2-yl)-1-methylcyclopropane-1-carbonyl]azetidin-2-yl}methyl)methanesulfonamide optical isomer] | 100% |
| CS(=O)(=O)NC1CCN(C(=O)C2CC2c2ccccc2-c2c(F)cccc2F)CCC1(F)F (racemic) [Example 212, a mixture of rac-N-{(4R)-1-[(1R,2R)-2-(2′,6′-difluoro[1,1′-biphenyl]-2-yl)cyclopropane-1-carbonyl]-5,5-difluoroazepan-4-yl}methanesulfonamide and rac-N-{(4S)-1-[(1R,2R)-2-(2′,6′-difluoro[1,1′-biphenyl]-2-yl)cyclopropane-1-carbonyl]-5,5-difluoroazepan-4-yl}methanesulfonamide] | 91% |
| CS(=O)(=O)NC[C@@H]1CCN1C(=O)[C@@H]1C[C@H]1c1ccccc1-c1c(F)cccc1F [Example 355, N-({(2S)-1-[(1R,2R)-2-(2′,6′-difluoro[1,1′-biphenyl]-2-yl)cyclopropane-1-carbonyl]azetidin-2-yl}methyl)methanesufonamide] | 94% |

Results, then the molecule that gave them:

| OX2R agonist activity (3 μM, %) | SMILES |
| --- | --- |
| 84% | CC1(C(=O)N2CC[C@H]2CNS(C)(=O)=O)CC1(F)c1ccccc1-c1c(F)cccc1F (stereo partly drawn) [Example 356, N-({(2S)-1-[(1R,2S)-2-(2′,6′-difluoro[1,1′-biphenyl]-2-yl)-2-fluoro-1-methylcyclopropane-1-carbonyl]azetidin-2-yl}methyl)methanesulfonamide, or N-({(2S)-1-[(1S,2R)-2-(2′,6′-difluoro[1,1′-biphenyl]-2-yl)-2-fluoro-1-methylcyclopropane-1-carbonyl]azetidin-2-yl}methyl)methanesulfonamide] |
| 50% | CC(=O)[C@@H]1CN(C(=O)[C@@H]2C[C@@]2(F)c2ccccc2-c2c(F)cccc2F)[C@H]1CNS(C)(=O)=O [Example 406, N-({(2R,3R)-3-acetyl-1-[(1S,2S)-2-(2′,6′-difluoro[1,1′-biphenyl]-2-yl)-2-fluorocyclopropane-1-carbonyl]azetidin-2-yl}methyl)methanesulfonamide] |
| 99% | O=C([C@@H]1C[C@@]1(F)c1ccc(F)cc1-c1c(F)cccc1F)N1C[C@@H](F)[C@H]1CNS(=O)(=O)C1CC1 [Example 429, N-({(2R,3R)-3-fluoro-1-[(1S,2S)-2-fluoro-2-(2′,5,6′-trifluoro[1,1′-biphenyl]-2-yl)cyclopropane-1-carbonyl]azetidin-2-yl}methyl)cyclopropanesulfonamide] |
| 79% | CC(NS(C)(=O)=O)[C@@H]1[C@H](C)CN1C(=O)[C@@H]1C[C@@]1(F)c1ccccc1-c1c(F)cccc1F (stereo partly drawn) [Example 401, N-[(1R)-1-{(2S,3R)-1-[(1S,2S)-2-(2′,6′-difluoro[1,1′-biphenyl]-2-yl)-2-fluorocyclopropane-1-carbonyl]-3-methylazetidin-2-yl}ethyl]methanesulfonamide, or N-[(1S)-1-{(2S,3R)-1-[(1S,2S)-2-(2′,6′-difluoro[1,1′-biphenyl]-2-yl)-2-fluorocyclopropane-1-carbonyl]-3-methylazetidin-2-yl}ethyl]methanesulfonamide] |
| 95% | CS(=O)(=O)N[C@@H](CO)C1CCN1C(=O)[C@@H]1C[C@@]1(F)c1ccccc1-c1c(F)cccc1F (stereo partly drawn) [Example 385, N-[(1R)-1-{(2R)-1-[(1S,2S)-2-(2′,6′-difluoro[1,1′-biphenyl]-2-yl)-2-fluorocyclopropane-1-carbonyl]azetidin-2-yl}-2-hydroxyethyl]methanesulfonamide, or N-[(1R)-1-{(2S)-1-[(1S,2S)-2-(2′,6′-difluoro[1,1′-biphenyl]-2-yl)-2-fluorocyclopropane-1-carbonyl]azetidin-2-yl}-2-hydroxyethyl]methanesulfonamide] |
| 99% | COCC1(C(=O)N2C[C@@H](F)[C@H]2CNS(C)(=O)=O)CC1c1ccc(F)cc1-c1c(F)cccc1F (stereo partly drawn) [Example 436, N-({(2R,3R)-3-fluoro-1-[(1R,2S)-1-(methoxymethyl)-2-(2′,5,6′-trifluoro[1,1′-biphenyl]-2-yl)cyclopropane-1-carbonyl]azetidin-2-yl}methyl)methanesulfonamide, or N-({(2R,3R)-3-fluoro-1-[(1S,2R)-1-(methoxymethyl)-2-(2′,5,6′-trifluoro[1,1′-biphenyl]-2-yl)cyclopropane-1-carbonyl]azetidin-2-yl}methyl)methanesulfonamide] |
